{"source": "patent EP4644396A1", "about": "(Visionpharma (Nantong) Co., Ltd, priority 2022, dated 2024)", "key": {"human TLR7": {"target": "T1, human TLR7 (Homo sapiens, UniProt Q9NYK1)", "T1 sequence (Q9NYK1 27-1049)": "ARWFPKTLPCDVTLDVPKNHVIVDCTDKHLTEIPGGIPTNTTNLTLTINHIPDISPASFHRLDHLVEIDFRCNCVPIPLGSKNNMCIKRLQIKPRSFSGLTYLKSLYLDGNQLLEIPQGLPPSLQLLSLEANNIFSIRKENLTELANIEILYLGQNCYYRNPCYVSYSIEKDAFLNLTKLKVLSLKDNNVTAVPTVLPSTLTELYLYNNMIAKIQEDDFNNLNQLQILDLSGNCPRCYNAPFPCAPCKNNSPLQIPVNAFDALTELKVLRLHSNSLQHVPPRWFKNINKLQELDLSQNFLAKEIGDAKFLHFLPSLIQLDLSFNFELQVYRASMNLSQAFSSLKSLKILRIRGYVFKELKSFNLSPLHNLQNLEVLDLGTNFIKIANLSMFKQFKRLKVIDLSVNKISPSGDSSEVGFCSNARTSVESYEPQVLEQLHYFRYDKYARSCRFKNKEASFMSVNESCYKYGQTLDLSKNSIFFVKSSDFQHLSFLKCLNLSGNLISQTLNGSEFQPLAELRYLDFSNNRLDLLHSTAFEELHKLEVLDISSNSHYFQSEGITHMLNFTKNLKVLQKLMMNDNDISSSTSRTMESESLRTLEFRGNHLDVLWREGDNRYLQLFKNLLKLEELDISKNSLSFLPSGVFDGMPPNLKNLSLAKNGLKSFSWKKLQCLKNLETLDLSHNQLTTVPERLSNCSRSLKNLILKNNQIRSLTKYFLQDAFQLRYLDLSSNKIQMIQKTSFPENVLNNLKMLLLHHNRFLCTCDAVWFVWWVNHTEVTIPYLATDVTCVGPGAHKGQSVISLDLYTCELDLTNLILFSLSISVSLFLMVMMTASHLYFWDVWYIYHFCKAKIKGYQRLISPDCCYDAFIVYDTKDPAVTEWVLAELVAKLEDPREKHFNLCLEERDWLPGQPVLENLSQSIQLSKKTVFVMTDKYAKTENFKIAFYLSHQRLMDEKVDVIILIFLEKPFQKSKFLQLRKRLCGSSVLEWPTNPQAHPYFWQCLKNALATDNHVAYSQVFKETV", "assay": "HEK-Blue hTLR7 SEAP reporter gene inhibition assay", "assay_type": "cell-based", "conditions": "hTLR7 HEK-Blue cells, TLR7 ligand Gardiquimod 10 µM, 20 hours, SEAP by Quanti-blue; class symbols; read-out: HEK-Blue hTLR7 IC50", "summary_of_the_method": "(§1)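 SEAP read-out by Quanti-Blue after 20 h stimulation gave IC50 values. Stable hTLR7 or hTLR8 HEK-Blue cells were pretreated 15 min with compound at 0.001–36 µM final, then stimulated with 10 µM Gardiquimod (TLR7) or 10 µM TLR8 ligand.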"}, "human TLR8": {"target": "T2, human TLR8 (Homo sapiens, UniProt Q9NR97)", "T2 construct": "expressed in transfected cells", "T2 sequence (Q9NR97 27-1041)": "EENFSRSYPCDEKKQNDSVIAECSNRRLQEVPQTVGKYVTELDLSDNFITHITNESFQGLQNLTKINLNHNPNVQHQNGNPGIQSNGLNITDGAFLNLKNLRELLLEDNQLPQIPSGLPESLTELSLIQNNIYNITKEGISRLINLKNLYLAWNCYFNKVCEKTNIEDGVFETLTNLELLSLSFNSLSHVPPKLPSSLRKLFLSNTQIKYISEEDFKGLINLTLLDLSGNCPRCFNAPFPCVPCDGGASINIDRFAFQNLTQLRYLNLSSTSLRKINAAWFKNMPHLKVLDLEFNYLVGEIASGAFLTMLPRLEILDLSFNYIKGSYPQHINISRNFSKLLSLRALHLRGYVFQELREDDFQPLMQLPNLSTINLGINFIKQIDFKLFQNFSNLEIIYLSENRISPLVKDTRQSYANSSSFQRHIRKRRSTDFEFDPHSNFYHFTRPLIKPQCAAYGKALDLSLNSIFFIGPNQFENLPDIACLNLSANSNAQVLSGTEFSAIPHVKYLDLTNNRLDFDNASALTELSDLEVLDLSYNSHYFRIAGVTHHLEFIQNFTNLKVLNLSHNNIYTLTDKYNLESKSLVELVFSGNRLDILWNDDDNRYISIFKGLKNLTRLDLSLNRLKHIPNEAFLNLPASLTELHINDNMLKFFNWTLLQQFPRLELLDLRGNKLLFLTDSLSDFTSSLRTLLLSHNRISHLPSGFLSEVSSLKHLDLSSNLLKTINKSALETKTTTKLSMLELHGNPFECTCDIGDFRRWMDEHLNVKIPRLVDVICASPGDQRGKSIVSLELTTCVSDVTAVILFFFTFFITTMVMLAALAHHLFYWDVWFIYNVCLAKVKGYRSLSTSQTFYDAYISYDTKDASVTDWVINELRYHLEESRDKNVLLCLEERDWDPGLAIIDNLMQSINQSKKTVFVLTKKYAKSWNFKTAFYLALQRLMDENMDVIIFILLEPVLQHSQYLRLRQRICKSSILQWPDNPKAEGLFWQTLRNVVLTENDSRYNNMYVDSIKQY", "assay": "HEK-Blue hTLR8 SEAP reporter gene inhibition assay", "assay_type": "cell-based", "conditions": "hTLR8 HEK-Blue cells, TLR8 ligand 10 µM, 20 hours, SEAP by Quanti-blue; class symbols; read-out: HEK-Blue hTLR8 IC50", "summary_of_the_method": "as §1"}}, "data": [{"smiles": "C[C@@H]1CN(C(=O)CN2Cc3nn4c(c3C[C@@H]2C)CN(c2ccc(C#N)n3ncc(F)c23)C[C@H]4C)C[C@@H](C)N1", "note": "[Example I-146, 4-((4R,9S)-8-(2-((3R,5R)-3,5-dimethylpiperazin-1-yl)-2-oxoethyl)-4,9-dimethyl-3,4,7,8,9,10-hexahydropyrido[3',4':3,4]pyrazolo[1,5-a]pyrazin-2(1H)-yl)-3-fluoropyrazolo[1,5-a]pyridine-7-carbonitrile]", "values": [{"measurement": "IC50", "setting": "human TLR7", "value": "< 50", "unit": "nM"}, {"measurement": "IC50", "setting": "human TLR8", "value": "> 100", "unit": "nM"}]}, {"smiles": "CC(C)C1Cc2c(nn3c2CN(c2ccc(C#N)n4ncc(F)c24)C[C@H]3C)CN1", "note": "(stereo partly drawn) [Example I-60, 3-Fluoro-4-((4R)-9-isopropyl-4-methyl-3,4,7,8,9,10-hexahydropyrido[3',4':3,4]pyrazolo[1,5-a]pyrazin-2(1H)-yl)pyrazolo[1,5-a]pyridine-7-carbonitrile]", "values": [{"measurement": "IC50", "setting": "human TLR7", "value": "< 50", "unit": "nM"}, {"measurement": "IC50", "setting": "human TLR8", "value": "> 100", "unit": "nM"}]}, {"smiles": "C[C@@H]1CN(c2ccc(C#N)n3ncc(F)c23)Cc2c3c(nn21)CN(C[C@](C)(O)CO)[C@@H](C)C3", "note": "[Example I-226, 4-((4R,9S)-8-((S)-2,3-dihydroxy-2-methylpropyl)-4,9-dimethyl-3,4,7,8,9,10-hexahydropyrido[3',4':3,4]pyrazolo[1,5-a]pyrazin-2(1H)-yl)-3-fluoropyrazolo[1,5-a]pyridine-7-carbonitrile]", "values": [{"measurement": "IC50", "setting": "human TLR7", "value": "< 50", "unit": "nM"}, {"measurement": "IC50", "setting": "human TLR8", "value": "> 100", "unit": "nM"}]}]}
